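Grown in 96-well plates, cells were treated for 48 hours with each compound at five concentrations. Insufficient inhibition: endpoint recorded as highest concentration tested. Here, GI50 denotes the concentration required for 50% inhibition of growth.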 Calls of active or inactive are those of the source. Rule as the data show it: active = GI50 up to about 1.1 µM and inactive = higher.

Consider 12 molecules from ChEMBL document CHEMBL1201862, “PubChem BioAssay data set” (2004).

Among the test systems are TK-10; UACC-257; NCI-H460; SK-OV-3; HL-60; SN12C; MDA-N; RPMI-8226; OVCAR-3; NCI-H226; OVCAR-4; BT-549; SNB-19; DU-145; SNB-75; U-251; HOP-92; Malme-3M; Hs-578T.
Assay in all cases: NCI anticancer screen, dose series, 48 h

Take `CCCCc1ccc(-n2sc3ncc(-c4ccccc4)cc3c2=O)cc1`: the GI50 with TK-10 is > 100 µM (inactive); in the assay on UACC-257, > 10 µM (inactive); in the assay on NCI-H460, > 100 µM (inactive); with SK-OV-3 it was > 100 µM (inactive); in the assay with HL-60 it was > 100 µM (inactive); with SN12C it was > 100 µM (inactive). In addition, the GI50 in the assay with MDA-N is > 100 µM (inactive); in the assay with RPMI-8226, > 100 µM (inactive); in the assay with OVCAR-3, > 100 µM (inactive); in the assay with NCI-H226 it was > 100 µM (inactive); with OVCAR-4, 42.1 µM (inactive); in the assay on BT-549, 59.6 µM (inactive). Further, the GI50 with SNB-19, in the assay with DU-145, in the assay on SNB-75, in the assay on U-251 and in the assay on HOP-92 was > 100 µM (inactive) in each case.
As for `Cc1ccnc(Nc2[nH]c(C(=O)c3ccc(Cl)cc3)c(N)c2C(=S)Nc2ccccc2)c1`, the GI50 was 17.2 µM (inactive) in the assay on TK-10; 15.6 µM (inactive) in the assay with UACC-257; 5.82 µM (inactive) in the assay on NCI-H460; 13.8 µM (inactive) in the assay with Malme-3M; 13.8 µM (inactive) with SK-OV-3; 23.8 µM (inactive) in the assay on HL-60. Also, the GI50 with SN12C is 15.7 µM (inactive); with MDA-N it was 15.2 µM (inactive); in the assay with RPMI-8226 it was 11 µM (inactive); in the assay on OVCAR-3, 25.8 µM (inactive); in the assay on NCI-H226, 17.7 µM (inactive); in the assay with OVCAR-4, 6.01 µM (inactive). Besides, the GI50 in the assay with BT-549 was 14.2 µM (inactive); in the assay on SNB-19, 23.4 µM (inactive); with DU-145, 22.1 µM (inactive); with SNB-75, 18.1 µM (inactive); in the assay with U-251 it was 15.1 µM (inactive); in the assay on HOP-92, 17.2 µM (inactive).
In the case of `COc1cc(/C=C2/C(=O)N/C(=N\C(C)=O)N2C)ccc1OC(C)=O`, the GI50 in the assay on TK-10 is 47.9 µM (inactive); in the assay on UACC-257, > 100 µM (inactive); in the assay on NCI-H460, > 100 µM (inactive); in the assay with SK-OV-3, > 100 µM (inactive); in the assay on HL-60 it was 53.3 µM (inactive); in the assay with SN12C it was > 100 µM (inactive). Further, the GI50 with MDA-N, with OVCAR-3, in the assay with NCI-H226, in the assay on OVCAR-4, in the assay with BT-549 and with SNB-19 was > 100 µM (inactive) throughout. Moreover, the GI50 with DU-145, in the assay with SNB-75, in the assay with U-251 and with HOP-92 was > 100 µM (inactive) throughout.
Take `Cc1c(N2C(=O)/C(=C/C=C/c3ccccc3)N=C2c2ccccc2)c(=O)n(-c2ccccc2)n1C`: the GI50 was 32.9 µM (inactive) in the assay with TK-10; 18.9 µM (inactive) in the assay on UACC-257; 29.4 µM (inactive) in the assay on NCI-H460; 28.8 µM (inactive) in the assay on Malme-3M; 23 µM (inactive) in the assay with SK-OV-3; 11.8 µM (inactive) in the assay with HL-60. In addition, the GI50 with SN12C is 24.5 µM (inactive); with MDA-N, 17.8 µM (inactive); in the assay with RPMI-8226, 19.1 µM (inactive); in the assay on OVCAR-3, 20.4 µM (inactive); in the assay on NCI-H226, 24.7 µM (inactive); in the assay with OVCAR-4, 17.8 µM (inactive). In addition, the GI50 with BT-549 was 20.1 µM (inactive); in the assay with DU-145 it was 40.8 µM (inactive); in the assay with SNB-75, 3.78 µM (inactive); in the assay with U-251, 16.8 µM (inactive); with HOP-92 it was 22.2 µM (inactive).
As for `CC(=O)n1nc(-c2ccccc2)n(/N=C/c2ccc([N+](=O)[O-])cc2)c1=O`, the GI50 in the assay on TK-10 was > 100 µM (inactive); in the assay with UACC-257, > 100 µM (inactive); in the assay on NCI-H460 it was > 100 µM (inactive); with Malme-3M, 90.8 µM (inactive); with SK-OV-3, 52.8 µM (inactive); with HL-60, > 100 µM (inactive). Besides, the GI50 in the assay with SN12C is > 100 µM (inactive); in the assay on MDA-N it was > 100 µM (inactive); in the assay on RPMI-8226 it was > 100 µM (inactive); with OVCAR-3, > 100 µM (inactive); with NCI-H226, > 100 µM (inactive); with OVCAR-4 it was 41.3 µM (inactive). The GI50 is > 100 µM (inactive) with BT-549; > 100 µM (inactive) in the assay with SNB-19; > 100 µM (inactive) with DU-145; > 100 µM (inactive) in the assay with SNB-75; > 100 µM (inactive) with U-251; 59.3 µM (inactive) with HOP-92.
As for `NC1CNC(=O)c2cscc21` (stereo not given), the GI50 in the assay on Hs-578T, in the assay with UACC-257, in the assay on NCI-H460, in the assay on Malme-3M, in the assay on HL-60 and with SN12C was > 100 µM (inactive) each time. Moreover, the GI50 in the assay with MDA-N, in the assay with RPMI-8226, with OVCAR-3, with OVCAR-4, in the assay on BT-549 and in the assay on SNB-19 was > 100 µM (inactive) throughout. Further, the GI50 with DU-145, with U-251 and in the assay on HOP-92 was > 100 µM (inactive) each time.
For the molecule `COc1nc(=O)n(C2CC(N=[N+]=[N-])C(CO)O2)cc1C` (stereo not given), the GI50 in the assay on Hs-578T, with TK-10, in the assay with UACC-257, in the assay with NCI-H460, in the assay with Malme-3M and in the assay on HL-60 was > 100 µM (inactive) in each case. In addition, the GI50 with SN12C, with MDA-N, with OVCAR-3, with NCI-H226, in the assay with OVCAR-4 and with BT-549 was > 100 µM (inactive) throughout. Also, the GI50 in the assay with SNB-19, with DU-145, in the assay on U-251 and in the assay with HOP-92 was > 100 µM (inactive) throughout.
For the molecule `O=C(O)c1ccc(NC(NC(=O)C(C(F)(F)F)C(F)(F)F)(C(F)(F)F)C(F)(F)F)cc1`, the GI50 with Hs-578T, in the assay on TK-10, in the assay with UACC-257, with SK-OV-3, in the assay on HL-60 and in the assay on SN12C was > 100 µM (inactive) throughout. Moreover, the GI50 in the assay on MDA-N, in the assay with RPMI-8226, with BT-549, with SNB-19, in the assay on SNB-75 and with U-251 was > 100 µM (inactive) in each case.
With `O=C(CBr)c1ccc2cc(Br)c3ccccc3c2c1`, the GI50 in the assay with Hs-578T is 25.8 µM (inactive); in the assay with TK-10, 21 µM (inactive); in the assay with UACC-257, 24 µM (inactive); in the assay with NCI-H460, 23 µM (inactive); in the assay with Malme-3M, 15.9 µM (inactive); in the assay on HL-60, 25.9 µM (inactive). The GI50 is 20.3 µM (inactive) in the assay on RPMI-8226; 20.6 µM (inactive) with OVCAR-3; 9.33 µM (inactive) with NCI-H226; 25.3 µM (inactive) in the assay on OVCAR-4; 18.2 µM (inactive) in the assay on BT-549; 31.9 µM (inactive) in the assay on SNB-19. In addition, the GI50 with DU-145 was 22.8 µM (inactive); with SNB-75, 25.6 µM (inactive); in the assay with U-251 it was 46.3 µM (inactive); in the assay with HOP-92, 20.9 µM (inactive).
`Cc1ccc(S(=O)(=O)NCCN(CCNS(=O)(=O)c2ccc(C)cc2)S(=O)(=O)c2ccc(C)cc2)cc1`: the GI50 in the assay with Hs-578T is 22.9 µM (inactive); in the assay on TK-10, 41.4 µM (inactive); in the assay on UACC-257, 29.1 µM (inactive); in the assay on NCI-H460, > 100 µM (inactive); with Malme-3M, 15.4 µM (inactive); in the assay with SK-OV-3 it was 43.1 µM (inactive). For the same molecule, the GI50 in the assay with SN12C is > 100 µM (inactive); with MDA-N, > 100 µM (inactive); in the assay on RPMI-8226, 56.2 µM (inactive); in the assay on OVCAR-3, > 100 µM (inactive); in the assay on OVCAR-4, 6.53 µM (inactive); with BT-549, > 100 µM (inactive). For the same molecule, the GI50 was 46.7 µM (inactive) in the assay on SNB-19, > 100 µM (inactive) in the assay with DU-145 and 28.9 µM (inactive) in the assay on U-251.
For `CCCCCCCCCCCCCCCCOCC(Cl)COP(=O)(O)OP(=O)(O)OCC1OC(n2cc(C)c(=O)[nH]c2=O)CC1O` (stereo not given), the GI50 in the assay on Hs-578T was 31.4 µM (inactive); in the assay with TK-10 it was > 100 µM (inactive); in the assay on UACC-257, > 100 µM (inactive); with NCI-H460 it was > 100 µM (inactive); in the assay with Malme-3M, > 100 µM (inactive); with SK-OV-3, > 100 µM (inactive). Further, the GI50 in the assay on HL-60 was > 100 µM (inactive); with SN12C, 70 µM (inactive); with MDA-N, 52.8 µM (inactive); with RPMI-8226 it was > 100 µM (inactive); with OVCAR-3 it was > 100 µM (inactive); in the assay with NCI-H226 it was 28.8 µM (inactive). The GI50 was > 100 µM (inactive) with OVCAR-4; > 100 µM (inactive) in the assay with BT-549; > 100 µM (inactive) in the assay with SNB-19; 26.7 µM (inactive) in the assay with SNB-75; > 100 µM (inactive) in the assay with U-251; 29.5 µM (inactive) with HOP-92.
As to `[O-][Cl+3]([O-])([O-])[O-].[O-][Cl+3]([O-])([O-])[O-].c1ccn2c(N3CCCC3)[n+]3c4ccccc4n4c(N5CCCC5)[n+]5ccccc5c4c3c2c1`, the GI50 with Hs-578T is 33.4 µM (inactive); with TK-10, > 100 µM (inactive); with UACC-257, 34.6 µM (inactive); in the assay on NCI-H460, 94.4 µM (inactive); in the assay with Malme-3M it was 36.2 µM (inactive); in the assay on HL-60 it was > 100 µM (inactive). Moreover, the GI50 in the assay with SN12C was 8 µM (inactive); with RPMI-8226, 98.6 µM (inactive); in the assay with OVCAR-3, 87.5 µM (inactive); in the assay on NCI-H226, 0.745 µM (active); with OVCAR-4 it was > 100 µM (inactive); in the assay on BT-549 it was 30.9 µM (inactive). In addition, the GI50 is 29.4 µM (inactive) in the assay on SNB-19; > 100 µM (inactive) with DU-145; 18.7 µM (inactive) with SNB-75; 28.2 µM (inactive) with U-251; 73.1 µM (inactive) in the assay on HOP-92.
